From article PMC10951960, “CGP7930 - An allosteric modulator of GABABRs, GABAARs and inwardly-rectifying potassium channels” (Neuropharmacology, 2023)

Assays:
[1] = test system: GABAARs in hippocampal neurons; experiment: slow inward current directly activated by CGP7930 in hippocampal neurons in high K+ external solution and its block by GABAAR antagonists; assay type: cell-based, rat; settings: antagonist 100 μM, P < 0.001
Experimental: (§1) Spontaneous inhibitory postsynaptic currents (sIPSCs) were recorded from cultured hippocampal neurons at 12–17 days in vitro (DIV). […] For recording K^+ currents in GIRK cells and neurons, the bath solution was switched to a high K^+ solution containing 25 mM KCl and reduced NaCl (120 mM), to shift the equilibrium potential for K^+ from approximately −90 to −47 mV, thus reversing the direction of K^+ current flux to net inward. GABABR-activated K^+ currents in cultured neurons were recorded in the additional presence of 2 mM kynurenic acid and 20 μM picrotoxin.
CGP7930 modulation at neuronal GABABRs was also characterised using baclofen-activated GIRK currents in hippocampal cultures similarly bathed in a high external K^+ concentration.

[2] = test system: GABAAR-mediated tonic inhibition in hippocampal neurons; experiment: tonic inhibition: baseline holding current and RMS noise in cultured hippocampal neurons; assay type: cell-based, rat; settings: Control to Bic (50 μM bicuculline)
Experimental: (§2) Briefly, single cells derived from dissected hippocampi were seeded onto glass coverslips coated with poly-D-lysine in a plating medium containing minimum essential media with 5% v/v heat-inactivated FCS, 5% v/v heat-inactivated horse serum, penicillin-G/streptomycin (100 U/100 μg/ml), 2 mM L-glutamine, and 20 mM glucose. Two hr after plating the media was changed to a Neurobasal-A based maintenance media supplemented with 1% v/v B-27, penicillin-G/streptomycin (100 U/100 μg/ml), 0.5% v/v Glutamax and 35 mM glucose.
as §1
(§3) Borosilicate glass electrodes (3–5 MΩ) were filled with a K^+-based internal solution for recording GIRK currents containing (mM): 120 KCl, 2 MgCl2, 11 EGTA, 30 KOH, 10 HEPES, 1 CaCl2, 1 GTP, 2 ATP, 14 creatine phosphate, pH 7.0. GABAAR currents and sIPSCs were recorded with a Cs-based internal solution containing (mM): 120 CsCl, 1 MgCl2, 11 EGTA, 30 KOH, 10 HEPES, 1 CaCl2, and 2 K2ATP; pH 7.2. […] Cells were held at −60 mV (sIPSCs) or −60/−70 mV (K^+ currents). Voltage clamp recordings were undertaken after optimising series resistance (Rs, <10 MΩ) and compensating for the whole-cell membrane capacitance. Membrane currents were filtered at 5 kHz (−3 dB, 6th pole Bessel, 36 dB/octave) and stored for analysis with Clampex 10.
For tonic inhibition, to determine the average holding currents, a 30 s continuous holding current recording was sampled every 1 s, discarding epochs that coincided with sIPSCs. Any effect of CGP7930 or bicuculline on the holding current was defined by subtracting the average holding currents in control and during drug application. The baseline root-mean-square current variance (RMS) was calculated before and during drug treatment. This was estimated from a continuous (20 s) current recording, sampled every 100 ms. The median current was calculated every 5 s and values more than twice the standard deviation from the median (usually due to IPSCs) were eliminated. All drugs were applied using a U-tube rapid drug application system, or more slowly via bath perfusion.
We assessed the effect of CGP7930 on tonic inhibition in hippocampal cultured neurons.

[3] = test system: native GABAARs in hippocampal neurons; experiment: muscimol-activated and CGP7930-activated GABAAR currents in hippocampal neurons, Cs+-based internal solution; assay type: cell-based, rat; settings: read-out: muscimol EC50; hippocampal neurons, n = 9
Experimental: as §2, §1, §3
Concentration-response curves were generated by measuring the current (I) for each ligand concentration and normalising to the maximal current response (Imax).

GABABR = target: T1, GABABR (Rattus norvegicus, UniProt O88871+Q9Z0U4); experiment: GABABR antagonism by CGP55845 in hippocampal whole-cell recording; assay type: cell-based; settings: n = 6, data not shown; read-out: IC50 of GABABR antagonist under our recording conditions
T1 construct: endogenous in cells; host or cells: cultured rat (E18 Sprague-Dawley) hippocampal neurons, 12-17 DIV
T1 sequence (Q9Z0U4 17-960 limits assumed): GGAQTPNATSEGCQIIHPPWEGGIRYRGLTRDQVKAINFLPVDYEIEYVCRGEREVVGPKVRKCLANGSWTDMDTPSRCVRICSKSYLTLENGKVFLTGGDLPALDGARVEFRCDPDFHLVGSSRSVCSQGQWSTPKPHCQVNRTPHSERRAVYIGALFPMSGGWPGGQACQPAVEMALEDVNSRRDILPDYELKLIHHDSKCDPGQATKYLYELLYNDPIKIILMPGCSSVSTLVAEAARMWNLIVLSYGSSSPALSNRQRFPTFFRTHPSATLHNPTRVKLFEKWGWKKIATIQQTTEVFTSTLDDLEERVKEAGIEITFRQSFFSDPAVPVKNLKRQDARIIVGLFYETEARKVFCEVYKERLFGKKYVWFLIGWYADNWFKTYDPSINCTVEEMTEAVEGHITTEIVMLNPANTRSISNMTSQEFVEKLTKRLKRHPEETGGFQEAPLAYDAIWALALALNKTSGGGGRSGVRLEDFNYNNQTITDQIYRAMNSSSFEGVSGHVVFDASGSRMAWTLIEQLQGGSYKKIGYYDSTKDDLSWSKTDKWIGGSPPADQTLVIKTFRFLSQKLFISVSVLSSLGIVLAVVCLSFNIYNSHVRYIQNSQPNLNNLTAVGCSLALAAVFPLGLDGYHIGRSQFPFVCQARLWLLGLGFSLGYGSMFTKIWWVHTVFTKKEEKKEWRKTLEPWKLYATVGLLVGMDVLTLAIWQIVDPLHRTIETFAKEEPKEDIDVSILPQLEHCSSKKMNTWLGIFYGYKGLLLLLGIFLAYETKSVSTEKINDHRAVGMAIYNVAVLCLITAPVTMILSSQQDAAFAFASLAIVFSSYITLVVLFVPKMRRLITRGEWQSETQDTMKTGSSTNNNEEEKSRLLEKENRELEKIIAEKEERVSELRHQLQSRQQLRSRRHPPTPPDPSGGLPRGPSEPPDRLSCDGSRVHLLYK
T1 sequence (O88871 41-940): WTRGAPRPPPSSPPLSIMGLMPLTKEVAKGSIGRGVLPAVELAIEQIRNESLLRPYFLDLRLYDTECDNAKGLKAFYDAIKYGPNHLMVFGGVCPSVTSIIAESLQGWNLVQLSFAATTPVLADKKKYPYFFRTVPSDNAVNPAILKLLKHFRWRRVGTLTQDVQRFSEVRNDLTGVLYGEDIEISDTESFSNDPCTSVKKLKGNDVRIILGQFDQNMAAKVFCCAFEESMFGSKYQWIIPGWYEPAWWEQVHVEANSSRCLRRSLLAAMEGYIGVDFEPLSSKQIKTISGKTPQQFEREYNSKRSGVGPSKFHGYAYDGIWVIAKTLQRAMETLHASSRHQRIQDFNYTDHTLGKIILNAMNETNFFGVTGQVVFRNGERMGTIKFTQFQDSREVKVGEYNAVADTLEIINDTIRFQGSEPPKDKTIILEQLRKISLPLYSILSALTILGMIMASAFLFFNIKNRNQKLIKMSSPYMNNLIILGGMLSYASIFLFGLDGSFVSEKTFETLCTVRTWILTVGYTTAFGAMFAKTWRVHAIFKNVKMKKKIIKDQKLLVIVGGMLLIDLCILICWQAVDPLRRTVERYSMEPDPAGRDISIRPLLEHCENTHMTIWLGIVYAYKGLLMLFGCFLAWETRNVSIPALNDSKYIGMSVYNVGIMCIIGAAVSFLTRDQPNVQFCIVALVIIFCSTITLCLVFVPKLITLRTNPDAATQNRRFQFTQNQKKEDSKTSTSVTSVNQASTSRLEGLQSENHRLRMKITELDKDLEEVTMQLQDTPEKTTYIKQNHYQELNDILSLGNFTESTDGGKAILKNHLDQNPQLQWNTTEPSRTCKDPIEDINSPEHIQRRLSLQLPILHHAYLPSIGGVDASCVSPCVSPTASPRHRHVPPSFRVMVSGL

## CN1CCc2cc3c(cc2[C@H]1[C@@H]1OC(=O)c2c1ccc1c2OCO1)OCO3 [bicuculline]
[1]
  effect on the slow inward current caused by > 3 μM CGP7930: abolished
[2]
  Tonic currents (change in baseline holding current): 38.02 ± 7.43 (6) pA

## picrotoxin
[1]
  effect on the slow inward current caused by > 3 μM CGP7930: abolished

## NCc1cc(=O)[nH]o1 [muscimol]
[3]
  EC50: 2700 ± 100 nM

## C[C@H](NC[C@H](O)CP(=O)(O)Cc1ccccc1)c1ccc(Cl)c(Cl)c1 [CGP55845]
GABABR
  IC50: 10 ± 0.7 nM
